{
  "source": "paper PMC4448987",
  "about": "“A neuroligin-1-derived peptide stimulates phosphorylation of the NMDA receptor NR1 subunit and rescues MK-801-induced decrease in long-term potentiation and memory impairment” (Pharmacology Research & Perspectives, 2015)",
  "key": {"[1]": {"conditions": "in vivo intra-hippocampal treatment; ref van der Kooij et al. [2014]; cited from earlier work", "excerpt": "(§1) We recently investigated the functional role of the NL1 B insert using a peptide, termed neurolide-1, that encompasses the NL1-binding site for NX1, including the B insert."}, "hippocampal neurons": {"test_system": "hippocampal neurons", "conditions": "NX-1β expression-dependent, in contrast to the peptide without the B insert; ref Gjorlund et al. [2012]; cited from earlier work", "excerpt": "as §1"}, "NX-1β": {"test_system": "NX-1β", "conditions": "ref Gjorlund et al. [2012]; cited from earlier work", "excerpt": "as §1"}, "male Wistar rats": {"test_system": "male Wistar rats", "test": "Y maze test (spontaneous alternation)", "assay_type": "in vivo, rat", "experimental": "NMDA-mediated effects of Neurolide-1 on spatial working memory performance was assessed by recording spontaneous alternation behavior in a Y maze test performed as described previously (Wegener et al. [2011]), (See Data S1). Initially, adult male Wister rats (420–490 g, n = 6–12; Charles River) were injected s.c., three times at 28, 4, and 2 h before start of the Y maze test. One group received Neurolide-1, saline, and neurolide-1 in this order. Another group received saline, MK-801, and saline in this order. A third group received neurolide-1, MK-801, and neurolide-1 in this order. And control group received saline at all times. In a second setup we tested the effect of neurolide-1 in very young male Wistar rats (4-weeks old) which received a s.c., injection of neurolide-1 or saline 2 h prior to testing them in the Y-maze (n = 11–15). Terminally, rats were rapidly and humanely rendered unconscious by concussive stunning and euthanized by cervical dislocation.\nThe maze was made of gray polyvinyl chloride, with three identical arms (425 mm length × 225 mm height × 145 mm width) mounted symmetrically to an equilateral triangular center section. Each rat was placed at the end of one arm and allowed to explore the apparatus freely for 8 min. The sequence and number of all arm entries were recorded for each animal throughout the testing period. An alternation was defined as entries into all three arms on consecutive occasions. Therefore, the number of maximal alternation was the total number of arm entries minus 2, and the percentage of alternation was calculated as (actual alternations / maximal alternations) × 100. The total number of arms entered during the sessions was also determined (Yamaguchi et al, 2006). Data were eliminated in cases in which the number of total arm entries was less than 10 or when the rat escaped from the Y maze. After each trial, the Y maze was cleaned with 1% Virkon S (Pharmaxim, Helsingborg, Sweden)."}, "adult male Wistar rats": {"test_system": "adult male Wistar rats", "test": "Social recognition test", "assay_type": "in vivo", "conditions": "rat", "experimental": "Social memory in animals reflects the ability to recognize conspecifics as familiar or unfamiliar. The social recognition test was performed basically as described previously (Secher et al. [2006]), (see Data S1). […] Rats were handled 5 days prior to the experiment and habituated to the transparent test cages for 1 h before start of experiment. The tests included three trials (T1–3), separated by intertribal periods of 2 and 24 h, with the test rat being introduced to a 3-week-old juvenile conspecific (40–50 g; Charles River) for 4 min each time. Investigative behavior was recorded and used to calculate recognition ratios (RR) as previously described (Kogan et al. [2000]). Retention periods longer than 1 h are believed to result in no or only minimal retention of social memory (Popik and van Ree [1998]; Secher et al. [2006]). Terminally, rats were rapidly and humanely rendered unconscious by concussive stunning and euthanized by cervical dislocation.\nSocial memory in animals reflects the ability of individuals to recognize conspecifics as familiar or unfamiliar. The animals were handled for 5 days prior to the experiments to minimize stress, habituated to the test cage, and trained to interact with a juvenile rat. Two groups of adult rats were used: a control group and a neurolide-1-treated group. Neurolide-1 (10 mg/kg) or vehicle (saline, 1 ml/kg) was injected subcutaneously (s.c.) two times, 24 and 2 h before the experiment. […] In the first trial, a 3-week-old juvenile male rat was introduced to the experimental adult rat for 4 min, and the time spent investigating the juvenile (e.g., licking, sniffing, chewing, and close following) was scored. Two hours later, a second trial was performed by reintroducing the same juvenile to the test rat to for 4 min, and investigative behavior was recorded. From the two trials, a recognition ratio (RR) was calculated as T2 / (T1 + T2), in which T1 and T2 were the times spent investigating the juvenile during the first and second trials, respectively. […]"}, "[2]": {"conditions": "4-week-old male Wistar rats, single s.c. treatment 2 h before test, n = 11-15"}},
  "data": [
    {"sequence": "SEGNRWSNSTKGLFQRA [neurolide-1]", "values": [
      {"measurement": "sociability and aggression", "setting": "[1]", "value": "did not demonstrate such effects"},
      {"measurement": "neurite outgrowth in hippocampal neurons", "setting": "hippocampal neurons", "value": "induce neurite outgrowth"},
      {"measurement": "binding to NX-1β", "setting": "NX-1β", "value": "bind NX-1β"},
      {"measurement": "alternation rate in 4-week-old rats", "setting": "male Wistar rats; [2]", "value": 76, "unit": "%"},
      {"measurement": "total number of arms visited in 4-week-old rats", "setting": "male Wistar rats; [2]", "value": "slightly decreased the total number of arms visited"},
      {"measurement": "working memory performance (alternation rate), peptide alone", "setting": "male Wistar rats; adult rats 420-490 g, neurolide-1 10 mg/kg s.c. 24 and 2 h before test, n = 6-12", "value": "did not affect performance"},
      {"measurement": "total number of arm entries, combined treatment neurolide-1 + MK-801", "setting": "male Wistar rats; adult rats, neurolide-1 10 mg/kg s.c. twice plus MK-801 0.1 mg/kg, n = 6-12", "value": "significantly increased the total number of arms visited"},
      {"measurement": "working memory (alternation rate) in MK-801-treated animals", "setting": "male Wistar rats; adult rats, neurolide-1 10 mg/kg s.c. twice, MK-801 0.1 mg/kg 2 h before second neurolide-1 injection, n = 6-12", "value": "partially restored working memory"},
      {"measurement": "total number of arm entries, single treatment", "setting": "male Wistar rats; adult rats, peptide alone or MK-801 alone, n = 6-12", "value": "did not change"},
      {"measurement": "long-term social memory, 24 h after the first trial", "setting": "adult male Wistar rats; 10 mg/kg s.c. 24 and 1 h before first trial, n = 12", "value": "did not exhibit an improvement in social memory"},
      {"measurement": "short-term social memory (recognition ratio), intertrial interval 2 h", "setting": "adult male Wistar rats; 10 mg/kg s.c. 24 and 1 h before first trial, same juvenile, n = 12, P < 0.001 vs control", "value": "enhanced social memory"},
      {"measurement": "recognition ratio with a new unfamiliar juvenile in the second trial", "setting": "adult male Wistar rats; 10 mg/kg s.c. twice, control test, compared with vehicle group or theoretical value 0.5, n = 12", "value": "did not lead to a decrease in the RR"}
    ]}
  ]
}
